Experimental data taken from ChEMBL document CHEMBL5331068, “Briarane-type diterpenoids, the inhibitors of osteoclast formation by interrupting Keap1-Nrf2 interaction and activating Nrf2 pathway” (Eur J Med Chem, 2023).
Activity calls are given as the source filed them. No cut-off for these calls is given here.

Assays:
BMDM [1] = test: Anti-osteoclastogenesis activity in C57BL/6 mouse BMDM cells assessed as inhibition of RANKL-induced osteoclastogenesis at 1 uM incubated for 7 days in the presence of M-CSF by TRAP-staining based microscopic analysis relative to control; assay type: functional; conditions: C57BL/6, BMDM, 168 h, time 7 day
BMDM [2] = test: Anti-osteoclastogenesis activity in C57BL/6 mouse BMDM cells assessed as inhibition of RANKL-induced osteoclastogenesis at 10 uM incubated for 7 days in the presence of M-CSF by TRAP-staining based microscopic analysis relative to control; assay type: functional; conditions: C57BL/6, BMDM, 168 h, time 7 day
[3] = molecular target: T1, Kelch-like ECH-associated protein 1 (Homo sapiens, UniProt Q14145); test: Binding affinity to recombinant human Keap1 by SPR analysis
T1 sequence (Q14145 whole entry): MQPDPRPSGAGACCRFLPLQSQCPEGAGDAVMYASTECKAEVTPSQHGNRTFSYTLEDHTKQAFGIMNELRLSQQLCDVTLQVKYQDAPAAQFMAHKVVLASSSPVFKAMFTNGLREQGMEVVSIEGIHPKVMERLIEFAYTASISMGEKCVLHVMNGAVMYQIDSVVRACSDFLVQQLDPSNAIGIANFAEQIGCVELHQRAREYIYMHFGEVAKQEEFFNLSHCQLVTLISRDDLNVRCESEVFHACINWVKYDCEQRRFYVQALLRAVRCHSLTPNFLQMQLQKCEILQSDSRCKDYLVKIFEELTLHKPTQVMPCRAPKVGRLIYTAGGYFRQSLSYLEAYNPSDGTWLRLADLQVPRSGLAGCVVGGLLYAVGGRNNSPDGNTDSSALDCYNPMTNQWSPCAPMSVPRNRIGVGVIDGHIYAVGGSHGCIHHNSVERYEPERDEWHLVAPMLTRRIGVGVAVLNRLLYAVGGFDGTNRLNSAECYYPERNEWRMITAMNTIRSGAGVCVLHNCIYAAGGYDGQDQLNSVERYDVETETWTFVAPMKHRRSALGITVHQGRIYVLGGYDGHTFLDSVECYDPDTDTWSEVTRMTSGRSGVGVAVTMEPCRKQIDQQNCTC

[4] = Cytotoxicity against C57BL/6 mouse BMDM cells incubated for 48 hrs by MTT assay; assay type: toxicity, cell-based; conditions: BMDM cells (bone marrow-derived macrophages)
[5] = molecular target: T1, Kelch-like ECH-associated protein 1; test: Binding affinity to recombinant human Keap1 assessed as equilibrium dissociation constant by SPR analysis

Row | Activity [3] | Kd [5] | Structure (SMILES) | inhibition at 1 µM (BMDM [1]) | inhibition at 10 µM (BMDM [2]) | CC50 at 48 h [4]
1 |  |  | O=P(O)(O)C(O)(Cn1ccnc1)P(=O)(O)O [ZOLEDRONIC ACID ANHYDROUS] | 87.1% |  | 
2 | Active |  | C=C1CC[C@H](OC(C)=O)[C@@]2(C)[C@@H](OC(C)=O)C[C@@H](OC(C)=O)[C@]3(CO3)[C@@H]2[C@H](OC(C)=O)[C@]2(O)[C@@H](C)C(=O)O[C@H]2[C@H]1Cl |  | 13.5% | > 50 µM
3 |  | > 100 µM | CCOCC1=C/[C@@H]2OC(=O)[C@H](C)[C@@]2(O)[C@@H](OC(C)=O)[C@H]2[C@@]3(CO3)[C@H](OC(C)=O)C[C@H](OC(=O)CC(C)C)[C@]2(C)[C@@H](OC(C)=O)/C=C\1 |  | 38.4% | > 50 µM
4 | Active |  | C=C1/C=C\[C@H](OC(C)=O)[C@@]2(C)[C@@H](OC(C)=O)CC[C@]3(CO3)[C@@H]2[C@H](OC(C)=O)[C@]2(O)[C@@H](C)C(=O)O[C@H]2[C@H]1Cl |  | 97.1% | > 50 µM
5 | Active |  | C=C1[C@H]2O[C@]3([C@@H](C)C(=O)O[C@H]3[C@H]1Cl)[C@@H](OC(C)=O)[C@H]1[C@@](O)(CCl)CC[C@H](OC(C)=O)[C@]1(C)[C@@H](OC(C)=O)[C@@H]2OC(C)=O |  | 98.8% | > 50 µM
6 | inactive | > 100 µM | CC(=O)O[C@H]1CC[C@](O)(CO)[C@@H]2[C@H](OC(C)=O)[C@@]3(O)[C@H](/C=C(CO)\C=C/[C@H](OC(=O)COC(=O)CC(C)C)[C@@]12C)OC(=O)[C@@H]3C |  | 33.7% | > 50 µM
7 | inactive |  | CC(=O)O[C@H]1[C@@H](O)[C@](O)(CO)[C@@H]2[C@H](OC(C)=O)[C@@]3(O)[C@H](/C=C(CO)\C=C/[C@H](OC(C)=O)[C@@]2(C)[C@H]1OC(=O)CC(C)C)OC(=O)[C@@H]3C |  | 57.6% | > 50 µM
8 |  | 6.6 µM | CC(=O)O[C@H]1/C=C\C(CO)=C/[C@@H]2OC(=O)[C@H](C)[C@@]2(O)[C@@H](OC(C)=O)[C@H]2[C@@](O)(CO)CC[C@H](OC(C)=O)[C@]12C |  | 32% | > 50 µM
9 | inactive |  | CC(=O)O[C@H]1[C@@H](O)[C@](O)(CO)[C@@H]2[C@H](OC(C)=O)[C@@]3(O)[C@H](/C=C(COC(=O)CC(C)C)\C=C/[C@H](OC(C)=O)[C@@]2(C)[C@H]1OC(C)=O)OC(=O)[C@@H]3C |  | 100% | > 50 µM
10 | inactive |  | CC(=O)O[C@H]1[C@@H](OC(=O)CC(C)C)[C@](O)(CO)[C@@H]2[C@H](OC(C)=O)[C@@]3(O)[C@H](/C=C(CO)\C=C/[C@H](OC(C)=O)[C@@]2(C)[C@H]1OC(C)=O)OC(=O)[C@@H]3C |  | 34.8% | > 50 µM
11 | inactive |  | CC(=O)O[C@H]1/C=C\C(CO)=C/[C@@H]2OC(=O)[C@H](C)[C@@]2(O)[C@@H](OC(C)=O)[C@H]2[C@@](O)(CO)[C@H](O)[C@H](OC(=O)CC(C)C)[C@H](OC(C)=O)[C@]12C |  | 62.8% | > 50 µM
12 | inactive |  | CC(=O)O[C@H]1[C@@H](OC(=O)CC(C)C)[C@](O)(CO)[C@@H]2[C@H](OC(C)=O)[C@@]3(O)[C@H](/C=C(CCl)\C=C/[C@H](OC(C)=O)[C@@]2(C)[C@H]1OC(C)=O)OC(=O)[C@@H]3C |  | 20.9% | > 50 µM
13 | inactive |  | CC(=O)O[C@H]1[C@@H](OC(=O)CC(C)C)[C@](O)(CO)[C@@H]2[C@H](OC(C)=O)[C@@]3(O)[C@H](/C=C(CO)\C=C/[C@H](OC(=O)COC(=O)CC(C)C)[C@@]2(C)[C@H]1OC(C)=O)OC(=O)[C@@H]3C |  | 30.8% | > 50 µM
14 | Active |  | C=C1[C@H](OC(=O)CC(C)C)C[C@H](OC(C)=O)[C@@]2(C)[C@@H](OC(C)=O)C[C@@H](OC(C)=O)[C@]3(CO3)[C@@H]2[C@H](OC(C)=O)[C@]2(O)[C@@H](C)C(=O)O[C@H]2[C@H]1Cl |  | 100% | > 50 µM
15 | Active |  | C=C1[C@H](Cl)[C@@H]2OC(=O)[C@H](C)[C@]23O[C@]1(O)C[C@H](OC(C)=O)[C@@]1(C)[C@@H](OC(C)=O)C[C@@H](OC(C)=O)[C@]2(CO2)[C@@H]1[C@@H]3OC(C)=O |  | 29.3% | > 50 µM
16 | Active |  | C=C1[C@H]2O[C@]3([C@@H](C)C(=O)O[C@H]3[C@H]1Cl)[C@@H](OC(C)=O)[C@H]1[C@@]3(CO3)[C@H](OC(C)=O)C[C@H](OC(C)=O)[C@]1(C)[C@@H](OC(C)=O)[C@@H]2OC(C)=O |  | 37.1% | > 50 µM
17 |  | 6.2 µM | CCOCC1=C/[C@@H]2OC(=O)[C@H](C)[C@@]2(O)[C@@H](OC(C)=O)[C@H]2[C@@]3(CO3)[C@H](OC(C)=O)C[C@H](OC(C)=O)[C@]2(C)[C@@H](OC(C)=O)/C=C\1 |  | 88.3% | > 50 µM
